Test results reported in PubChem BioAssay AID206 (DTP/NCI, 2004).
Values joined by “and” are separate entries in the source; they are usually repeats but may differ in a detail not shown here. Identical values can stand only once. Results filed as inconclusive are left out.

Test system: nude mice, HT29 intrarenal xenograft, tumor weight T/C
Experiment: NCI In Vivo Anticancer Drug Screen. Data for tumor model HT29;CX-1 Human Adenocarcinoma (MER+) (intrarenal inoculation) in NU/NU Swiss (nude) mice
Details: endpoint: mean tumor weight change, higher = larger tumour
Method in brief: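 Endpoint measured as tumor size or survival; ratio reported is treated group over vehicle controls.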

[1] = dose: 8.0 mg/kg/injection, schedule: Q01DX010 (sc), vehicle: saline
[2] = dose: 200.0 mg/kg/injection, schedule: Q04DX004 (sc), vehicle: saline with Tween-80
[3] = dose: 400.0 mg/kg/injection, schedule: Q04DX004 (sc), vehicle: saline with Tween-80
[4] = dose: 800.0 mg/kg/injection, schedule: Q04DX004 (sc), vehicle: saline with Tween-80
[5] = dose: 100.0 mg/kg/injection, schedule: Q04DX004 (sc), vehicle: saline with Tween-80
[6] = dose: 1600.0 mg/kg/injection, schedule: Q04DX004 (sc), vehicle: saline with Tween-80
[7] = dose: 100.0 mg/kg/injection, schedule: Q01DX010 (sc), vehicle: saline with Tween-80
[8] = dose: 0.5 mg/kg/injection, schedule: Q04DX004 (sc), vehicle: saline
[9] = dose: 2.0 mg/kg/injection, schedule: Q04DX004 (sc), vehicle: saline
[10] = dose: 2.0 mg/kg/injection, schedule: Q01DX010 (sc), vehicle: saline
[11] = dose: 4.0 mg/kg/injection, schedule: Q01DX010 (sc), vehicle: saline
[12] = dose: 100.0 mg/kg/injection, schedule: Q01DX010 (sc), vehicle: saline
[13] = dose: 200.0 mg/kg/injection, schedule: Q01DX010 (sc), vehicle: saline

CCCCNCCCNCCCNC(=O)c1csc(-c2csc(CCNC(=O)C(NC(=O)C(C)C(O)C(C)NC(=O)C(NC(=O)c3nc(C(CC(N)=O)NCC(N)C(N)=O)nc(N)c3C)C(OC3OC(CO)C(O)C(O)C3OC3OC(CO)C(O)C(OC(N)=O)C3O)c3cnc[nH]3)C(C)O)n2)n1 (centres undefined)
T/C [1]: 69 % of control and 83 % of control
T/C (dose: 16.0 mg/kg/injection, schedule: Q01DX010 (sc), vehicle: saline): 76 % of control and 80 % of control
T/C (dose: 32.0 mg/kg/injection, schedule: Q01DX010 (sc), vehicle: saline): 66 % of control and 68 % of control
T/C (dose: 64.0 mg/kg/injection, schedule: Q01DX010 (sc), vehicle: saline): 23 % of control and 25 % of control

Cc1ccc(N)c(N)c1
T/C [2]: 151 % of control
T/C [3]: 85 % of control
T/C [4]: 124 % of control

O=C(O[Si](Cc1ccccc1)(Cc1ccccc1)Cc1ccccc1)N(CCCl)CCCl
T/C [5]: 119 % of control
T/C [2]: 121 % of control

NC(=O)/C=C/C(=O)c1c(Cl)cccc1Cl
T/C (dose: 36.0 mg/kg/injection, schedule: Q04DX004 (sc), vehicle: saline with Tween-80): 52 % of control

CC(C#N)(C#N)N=Nc1ccc(Cl)cc1Cl
T/C [2]: 116 % of control
T/C [6]: 106 % of control

Cc1ccc(NCC2(/N=C/c3ccccc3)OC(CO)C(O)C2O)cc1 (centres undefined)
T/C (dose: 200.0 mg/kg/injection, schedule: Q04DX004 (sc), vehicle: Klucel (hydroxypropylcellulose) (HPC)): 81 % of control
T/C (dose: 400.0 mg/kg/injection, schedule: Q04DX004 (sc), vehicle: Klucel (hydroxypropylcellulose) (HPC)): 70 % of control
T/C (dose: 800.0 mg/kg/injection, schedule: Q04DX004 (sc), vehicle: Klucel (hydroxypropylcellulose) (HPC)): 92 % of control
T/C (dose: 1600.0 mg/kg/injection, schedule: Q04DX004 (sc), vehicle: Klucel (hydroxypropylcellulose) (HPC)): 94 % of control

ClCCCN1CCN(CCCCl)CC1
T/C (dose: 62.5 mg/kg/injection, schedule: Q04DX004 (sc), vehicle: distilled water + alcohol): 52 % of control
T/C (dose: 125.0 mg/kg/injection, schedule: Q04DX004 (sc), vehicle: distilled water + alcohol): 17 % of control

C[C@@H](CN1CC(=O)NC(=O)C1)N1CC(=O)NC(=O)C1
T/C [7]: 232 % of control
T/C (dose: 200.0 mg/kg/injection, schedule: Q01DX010 (sc), vehicle: saline with Tween-80): 46 % of control

S=C=NCCc1ccccc1
T/C [7]: 57 % of control (2×) and 61 % of control

N#CC(C#N)=C/C=C/c1cccc([N+](=O)[O-])c1
T/C (dose: 100.0 mg/kg/injection, schedule: Q01DX010 (sc), vehicle: Klucel (hydroxypropylcellulose) (HPC)): 40 % of control
T/C (dose: 200.0 mg/kg/injection, schedule: Q01DX010 (sc), vehicle: Klucel (hydroxypropylcellulose) (HPC)): 38 % of control
T/C (dose: 400.0 mg/kg/injection, schedule: Q01DX010 (sc), vehicle: Klucel (hydroxypropylcellulose) (HPC)): 74 % of control
T/C (dose: 800.0 mg/kg/injection, schedule: Q01DX010 (sc), vehicle: Klucel (hydroxypropylcellulose) (HPC)): 61 % of control

CCOC(=O)C(N)CSC(=O)NC (centres undefined)
T/C (dose: 100.0 mg/kg/injection, schedule: Q04DX004 (sc), vehicle: saline): 92 % of control
T/C (dose: 200.0 mg/kg/injection, schedule: Q04DX004 (sc), vehicle: saline): 96 % of control
T/C (dose: 400.0 mg/kg/injection, schedule: Q04DX004 (sc), vehicle: saline): 103 % of control
T/C (dose: 800.0 mg/kg/injection, schedule: Q04DX004 (sc), vehicle: saline): 62 % of control

C/C=C1\C[C@@H]2C(OC)Nc3cc(O)c(OC)cc3C(=O)N2C1 (some centres undefined)
T/C (dose: 0.25 mg/kg/injection, schedule: Q04DX004 (sc), vehicle: saline): 113 % of control
T/C [8]: 93 % of control
T/C [9]: 75 % of control

Cc1ccc2c(c1)N=C(Nc1ccccc1)N=S2(C)=O (centres undefined)
T/C (dose: 50.0 mg/kg/injection, schedule: Q04DX004 (sc), vehicle: saline with Tween-80): 48 % of control
T/C [5]: 67 % of control
T/C [2]: 66 % of control

O=C1C(NCCO)=C(N2CC2)C(=O)C(NCCO)=C1N1CC1
T/C [8]: 76 % of control
T/C (dose: 1.0 mg/kg/injection, schedule: Q04DX004 (sc), vehicle: saline): 12 % of control
T/C (dose: 1.5 mg/kg/injection, schedule: Q04DX004 (sc), vehicle: saline): 86 % of control
T/C [9]: 21 % of control
T/C (dose: 3.0 mg/kg/injection, schedule: Q04DX004 (sc), vehicle: saline): 82 % of control

CC(Oc1ccccc1-c1ccccc1)C(=O)N(C)C (centres undefined)
T/C [2]: 115 % of control
T/C [3]: 63 % of control
T/C [4]: 89 % of control
T/C [6]: 55 % of control

COc1cccc2c1C(=O)c1c(O)c3c(c(O)c1C2=O)C[C@@](O)(C(=O)CO)C[C@@H]3OC1CC(N)C(O)C(C)O1 (some centres undefined)
T/C (dose: 0.25 mg/kg/injection, schedule: Q01DX010 (ip), vehicle: water): -27 % of control
T/C (dose: 0.5 mg/kg/injection, schedule: Q01DX010 (sc), vehicle: saline): 62 % of control
T/C (dose: 1.0 mg/kg/injection, schedule: Q01DX010 (sc), vehicle: saline): 30 % of control and 32 % of control
T/C (dose: 1.5 mg/kg/injection, schedule: Q01DX010 (sc), vehicle: saline): 96 % of control
T/C (dose: 2.0 mg/kg/injection, schedule: Q01DX010 (ip), vehicle: water): -20 % of control
T/C [10]: 15 % of control and 29 % of control
T/C (dose: 3.0 mg/kg/injection, schedule: Q01DX010 (sc), vehicle: saline): 109 % of control
T/C [11]: 4 % of control and 27 % of control
T/C (dose: 6.0 mg/kg/injection, schedule: Q01DX010 (sc), vehicle: saline): 102 % of control
T/C (dose: 7.5 mg/kg/injection, schedule: Q04DX004 (sc), vehicle: saline): 62 % of control

O=S1(=O)C=C(c2ccccc2)C(c2ccccc2)=C1
T/C (dose: 150.0 mg/kg/injection, schedule: Q04DX004 (sc), vehicle: saline with Tween-80): 58 % of control
T/C (dose: 300.0 mg/kg/injection, schedule: Q04DX004 (sc), vehicle: saline with Tween-80): 83 % of control
T/C (dose: 600.0 mg/kg/injection, schedule: Q04DX004 (sc), vehicle: saline with Tween-80): 97 % of control
T/C (dose: 1200.0 mg/kg/injection, schedule: Q04DX004 (sc), vehicle: saline with Tween-80): 85 % of control

O=C1N[C@@H]([C@H]2CC[C@H](Cl)CN2)C(=O)N[C@H]1[C@H]1CC[C@H](Cl)CN1
T/C (dose: 0.16 mg/kg/injection, schedule: Q01DX010 (sc), vehicle: water): 65 % of control and 70 % of control and 74 % of control
T/C (dose: 0.31 mg/kg/injection, schedule: Q01DX010 (sc), vehicle: water): 20 % of control

O=NN(CCCl)C(=O)NCCCl
T/C [10]: 80 % of control
T/C [11]: 66 % of control
T/C [1]: 61 % of control and 70 % of control
T/C (dose: 15.0 mg/kg/injection, schedule: Q04DX004 (sc), vehicle: suspension in saline): 100 % of control
T/C (dose: 30.0 mg/kg/injection, schedule: Q04DX004 (sc), vehicle: suspension in saline): 69 % of control
T/C (dose: 60.0 mg/kg/injection, schedule: Q04DX004 (sc), vehicle: suspension in saline): 41 % of control

Cc1c(CNc2ccc(C(=O)NC(CC(=O)O)C(=O)O)cc2)ccc2nc(N)nc(N)c12 (centres undefined)
T/C (dose: 12.5 mg/kg/injection, schedule: Q04DX004 (sc), vehicle: saline with Tween-80): 41 % of control

CCOC(=O)c1c[nH]c2oc(/C=N/N3CC(CN4CCOCC4)OC3=O)cc2c1=O (centres undefined)
T/C (dose: 50.0 mg/kg/injection, schedule: Q01DX010 (sc), vehicle: saline): 69 % of control
T/C [12]: 124 % of control
T/C [13]: 86 % of control

Cc1cc(SCC(=O)c2ccc(Br)cc2)cc(C)[o+]1
T/C [12]: 41 % of control
T/C [13]: 76 % of control

CCC1(O)CC2CN(CCc3c([nH]c4ccccc34)C(C(=O)OC)(c3cc4c(cc3OC)N(C)C3C(O)(C(N)=O)C(O)C5(CC)C=CCN6CCC43C65)C2)C1 (centres undefined) (tested in a mixture with another compound)
T/C (dose: 1.5 mg/kg/injection, schedule: Q04DX004 (sc), vehicle: water): 87 % of control
T/C (dose: 12.0 mg/kg/injection, schedule: Q04DX004 (sc), vehicle: water): -25 % of control

C1OC1C1CO1 (centres undefined)
T/C (dose: 12.5 mg/kg/injection, schedule: Q01DX010 (sc), vehicle: saline): 164 % of control
T/C (dose: 25.0 mg/kg/injection, schedule: Q01DX010 (sc), vehicle: saline): 168 % of control

C1CCC2[N-]CC3CCCCC3[N-]CC3CCCCC3[N-]CC3CCCCC3[N-]CC2C1.[Cu] (centres undefined)
T/C (dose: 6.25 mg/kg/injection, schedule: Q01DX010 (sc), vehicle: Klucel (hydroxypropylcellulose) (HPC)): 35 % of control
T/C (dose: 12.5 mg/kg/injection, schedule: Q01DX010 (sc), vehicle: Klucel (hydroxypropylcellulose) (HPC)): 49 % of control
T/C (dose: 25.0 mg/kg/injection, schedule: Q01DX010 (sc), vehicle: Klucel (hydroxypropylcellulose) (HPC)): 54 % of control
